Experimental data: ChEMBL document CHEMBL1139487, “Discovery of corticotropin releasing factor 2 receptor selective sauvagine analogues for treatment of skeletal muscle atrophy” (J Med Chem, 2005)
Blank lines part the entries; values can stand above or below the compound they belong to. Square brackets hold non-standard residues; d marks the D form. Peptide text beside a SMILES is read from it. 2Nal = N[C@@H](Cc1ccc2ccccc2c1)C(=O)O; pGlu = O=C1CC[C@@H](C(=O)O)N1

Assays:
[1] = biological target: T1, Corticotropin-releasing factor receptor 1 (Mus musculus) (UniProt P35347); assay: In vitro agonistic activity against mouse corticotropin releasing factor 1 receptor; assay type: functional
T1 sequence (whole entry): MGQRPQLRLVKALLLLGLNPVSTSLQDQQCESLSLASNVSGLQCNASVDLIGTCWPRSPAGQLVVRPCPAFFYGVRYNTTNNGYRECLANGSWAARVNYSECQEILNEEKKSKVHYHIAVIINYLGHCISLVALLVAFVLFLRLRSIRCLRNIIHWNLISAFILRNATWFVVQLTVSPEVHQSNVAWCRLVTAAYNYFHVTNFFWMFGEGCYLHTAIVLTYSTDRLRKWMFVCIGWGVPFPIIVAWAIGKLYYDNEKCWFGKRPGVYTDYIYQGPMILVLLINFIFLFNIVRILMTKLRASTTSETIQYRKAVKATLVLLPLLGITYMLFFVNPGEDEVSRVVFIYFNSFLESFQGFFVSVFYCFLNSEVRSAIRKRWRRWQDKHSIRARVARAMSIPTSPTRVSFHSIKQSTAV

[2] = biological target: Corticotropin-releasing factor receptor 2 (Mus musculus) (UniProt Q60748); assay: In vitro agonistic activity against mouse corticotropin releasing factor 2 receptor; assay type: functional
Chain of Corticotropin-releasing factor receptor 2 (Mus musculus) (Q60748 whole entry): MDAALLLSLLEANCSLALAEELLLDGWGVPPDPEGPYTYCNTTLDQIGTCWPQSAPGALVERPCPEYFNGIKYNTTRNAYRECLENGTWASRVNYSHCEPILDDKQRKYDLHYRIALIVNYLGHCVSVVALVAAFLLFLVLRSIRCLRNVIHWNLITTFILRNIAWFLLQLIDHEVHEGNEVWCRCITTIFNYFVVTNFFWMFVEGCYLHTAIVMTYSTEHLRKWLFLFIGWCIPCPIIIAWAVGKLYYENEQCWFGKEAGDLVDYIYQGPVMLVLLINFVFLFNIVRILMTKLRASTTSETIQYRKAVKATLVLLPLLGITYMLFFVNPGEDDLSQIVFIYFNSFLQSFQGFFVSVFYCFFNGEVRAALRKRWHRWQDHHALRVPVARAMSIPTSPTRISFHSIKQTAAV

Mus musculus = species on record: Mus musculus; assay: Selectivity ratio of EC50s for mouse corticotropin releasing factor receptors 1 and 2
[3] = biological target: T2, Corticotropin-releasing factor receptor 1 (Mus musculus, UniProt P35347); assay: In vitro effective concentration for mouse corticotropin releasing factor 1 receptor
T2 sequence (P35347 whole entry): T1 sequence (whole entry)

[4] = biological target: Corticotropin-releasing factor receptor 2 (Mus musculus, UniProt Q60748); assay: In vitro effective concentration for mouse corticotropin releasing factor 2 receptor
Chain of Corticotropin-releasing factor receptor 2 (Q60748 whole entry): as above

Emax [1]: 100%
Emax [2]: 99%
Selectivity (Mus musculus): 47
Structure (SMILES): CC[C@H](C)[C@H](NC(=O)[C@@H](NC(=O)[C@H](CC(=O)O)NC(=O)[C@H](CC(C)C)NC(=O)[C@H](CC(C)C)NC(=O)[C@H](CC(C)C)NC(=O)[C@H](CCCN=C(N)N)NC(=O)[C@H](CC(N)=O)NC(=O)[C@H](CC(N)=O)NC(=O)[C@H](C)NC(=O)[C@H](C)NC(=O)[C@H](CCC(N)=O)NC(=O)[C@H](CCC(N)=O)NC(=O)[C@H](CCCCN)NC(=O)[C@H](CCC(=O)O)NC(=O)[C@H](CCCCN)NC(=O)[C@H](CCC(=O)O)NC(=O)[C@H](CCC(N)=O)NC(=O)[C@H](CCCCN)NC(=O)[C@H](CCC(=O)O)NC(=O)[C@@H](NC(=O)[C@H](CCC(=O)O)NC(=O)[C@@H](NC(=O)[C@H](CCSC)NC(=O)[C@H](CCCCN)NC(=O)[C@H](CCCN=C(N)N)NC(=O)[C@H](CC(C)C)NC(=O)[C@H](CC(C)C)NC(=O)[C@H](CCC(N)=O)NC(=O)[C@H](Cc1ccc(O)cc1)NC(=O)[C@@H]1CCCN1C(=O)[C@H](CC(C)C)NC(=O)[C@H](CC(=O)O)NC(=O)[C@@H](NC(=O)[C@H](CO)NC(=O)[C@@H](NC(=O)[C@@H]1CCCN1C(=O)[C@@H]1CCCN1C(=O)CNC(=O)[C@@H]1CCC(=O)N1)[C@@H](C)CC)[C@@H](C)CC)[C@@H](C)CC)[C@@H](C)CC)[C@@H](C)O)C(=O)O

EC50 [3]: 325 nM
EC50 [4]: 10.7 nM
Structure (SMILES): CC[C@H](C)[C@H](NC(=O)[C@@H](NC(=O)[C@H](CC(=O)O)NC(=O)[C@H](CC(C)C)NC(=O)[C@H](CC(C)C)NC(=O)[C@H](CC(C)C)NC(=O)[C@H](CCCNC(=N)N)NC(=O)[C@H](CC(N)=O)NC(=O)[C@H](CC(N)=O)NC(=O)[C@H](C)NC(=O)[C@H](C)NC(=O)[C@H](CCC(N)=O)NC(=O)[C@H](CCC(N)=O)NC(=O)[C@H](CCCCN)NC(=O)[C@H](CCC(=O)O)NC(=O)[C@H](CCCCN)NC(=O)[C@H](CCC(=O)O)NC(=O)[C@H](CCC(N)=O)NC(=O)[C@H](CCCCN)NC(=O)[C@H](CCC(=O)O)NC(=O)[C@@H](NC(=O)[C@H](CCC(=O)O)NC(=O)[C@@H](NC(=O)[C@H](CCSC)NC(=O)[C@H](CCCCN)NC(=O)[C@H](CCCNC(=N)N)NC(=O)[C@H](CC(C)C)NC(=O)[C@H](CC(C)C)NC(=O)[C@H](Cc1ccc(O)cc1)NC(=O)[C@H](CCC(N)=O)NC(=O)[C@@H]1CCCN1C(=O)[C@H](CC(C)C)NC(=O)[C@H](CC(=O)O)NC(=O)[C@@H](NC(=O)[C@H](CO)NC(=O)[C@@H](NC(=O)[C@@H]1CCCN1C(=O)[C@@H]1CCCN1C(=O)CNC(=O)[C@@H]1CCC(=O)N1)[C@@H](C)CC)[C@@H](C)CC)[C@@H](C)CC)[C@@H](C)CC)[C@@H](C)O)C(=O)O

Continued, compound first:

Structure (SMILES): CC[C@H](C)[C@H](NC(=O)[C@@H](NC(=O)[C@H](CC(=O)O)NC(=O)[C@H](CC(C)C)NC(=O)[C@H](CC(C)C)NC(=O)[C@H](CC(C)C)NC(=O)[C@H](CCCN=C(N)N)NC(=O)[C@H](CC(N)=O)NC(=O)[C@H](CC(N)=O)NC(=O)[C@H](C)NC(=O)[C@H](C)NC(=O)[C@H](CCC(N)=O)NC(=O)[C@H](CCC(N)=O)NC(=O)[C@H](CCCCN)NC(=O)[C@H](CCC(=O)O)NC(=O)[C@H](CCCCN)NC(=O)[C@H](CCC(=O)O)NC(=O)[C@H](CCC(N)=O)NC(=O)[C@H](CCCCN)NC(=O)[C@H](CCC(=O)O)NC(=O)[C@@H](NC(=O)[C@H](CCC(=O)O)NC(=O)[C@@H](NC(=O)[C@H](CCSC)NC(=O)[C@H](CCCCN)NC(=O)[C@H](CCCN=C(N)N)NC(=O)[C@H](CC(C)C)NC(=O)[C@H](CC(C)C)NC(=O)[C@H](CC(C)C)NC(=O)[C@@H](NC(=O)[C@@H]1CCCN1C(=O)[C@H](CC(C)C)NC(=O)[C@H](CC(=O)O)NC(=O)[C@@H](NC(=O)[C@H](CO)NC(=O)[C@@H](NC(=O)[C@@H]1CCCN1C(=O)[C@@H]1CCCN1C(=O)CNC(=O)[C@@H]1CCC(=O)N1)[C@@H](C)CC)[C@@H](C)CC)[C@@H](C)O)[C@@H](C)CC)[C@@H](C)CC)[C@@H](C)O)C(=O)O
Emax [1]: 48%
Emax [2]: 100%
Selectivity (Mus musculus): > 49

Structure (SMILES): CC[C@H](C)[C@H](NC(=O)[C@@H](NC(=O)[C@H](CC(=O)O)NC(=O)[C@H](CC(C)C)NC(=O)[C@H](CC(C)C)NC(=O)[C@H](CC(C)C)NC(=O)[C@H](CCCNC(=N)N)NC(=O)[C@H](CC(N)=O)NC(=O)[C@H](CC(N)=O)NC(=O)[C@H](C)NC(=O)[C@H](C)NC(=O)[C@H](CCC(N)=O)NC(=O)[C@H](CCC(N)=O)NC(=O)[C@H](CCCCN)NC(=O)[C@H](CCC(=O)O)NC(=O)[C@H](CCCCN)NC(=O)[C@H](CCC(=O)O)NC(=O)[C@H](CCC(N)=O)NC(=O)[C@H](CCCCN)NC(=O)[C@H](CCC(=O)O)NC(=O)[C@@H](NC(=O)[C@H](CCC(=O)O)NC(=O)[C@@H](NC(=O)[C@H](CCSC)NC(=O)[C@H](CCCCN)NC(=O)[C@H](CCCNC(=N)N)NC(=O)[C@H](CC(C)C)NC(=O)[C@H](CC(C)C)NC(=O)[C@H](Cc1ccc2ccccc2c1)NC(=O)[C@H](C)NC(=O)[C@@H]1CCCN1C(=O)[C@H](CC(C)C)NC(=O)[C@H](CC(=O)O)NC(=O)[C@@H](NC(=O)[C@H](CO)NC(=O)[C@@H](NC(=O)[C@@H]1CCCN1C(=O)[C@@H]1CCCN1C(=O)CNC(=O)[C@@H]1CCC(=O)N1)[C@@H](C)CC)[C@@H](C)CC)[C@@H](C)CC)[C@@H](C)CC)[C@@H](C)O)C(=O)O ([pGlu]GPPISIDLPA[2Nal]LLRKMIEIEKQEKEKQQAANNRLLLDTI-OH)
EC50 [3]: 582 nM
EC50 [4]: 13.3 nM

Structure (SMILES): CC[C@H](C)[C@H](NC(=O)[C@@H](NC(=O)[C@H](CC(=O)O)NC(=O)[C@H](CC(C)C)NC(=O)[C@H](CC(C)C)NC(=O)[C@H](CC(C)C)NC(=O)[C@H](CCCNC(=N)N)NC(=O)[C@H](CC(N)=O)NC(=O)[C@H](CC(N)=O)NC(=O)[C@H](C)NC(=O)[C@H](C)NC(=O)[C@H](CCC(N)=O)NC(=O)[C@H](CCC(N)=O)NC(=O)[C@H](CCCCN)NC(=O)[C@H](CCC(=O)O)NC(=O)[C@H](CCCCN)NC(=O)[C@H](CCC(=O)O)NC(=O)[C@H](CCC(N)=O)NC(=O)[C@H](CCCCN)NC(=O)[C@H](CCC(=O)O)NC(=O)[C@@H](NC(=O)[C@H](CCC(=O)O)NC(=O)[C@@H](NC(=O)[C@H](CCSC)NC(=O)[C@H](CCCCN)NC(=O)[C@H](CCCNC(=N)N)NC(=O)[C@H](CC(C)C)NC(=O)[C@H](CC(C)C)NC(=O)[C@H](CC(C)C)NC(=O)[C@@H](NC(=O)[C@@H]1CCCN1C(=O)[C@H](CC(C)C)NC(=O)[C@H](CC(=O)O)NC(=O)[C@@H](NC(=O)[C@H](CO)NC(=O)[C@@H](NC(=O)[C@@H]1CCCN1C(=O)[C@@H]1CCCN1C(=O)CNC(=O)[C@@H]1CCC(=O)N1)[C@@H](C)CC)[C@@H](C)CC)[C@@H](C)O)[C@@H](C)CC)[C@@H](C)CC)[C@@H](C)O)C(=O)O
EC50 [3]: > 1000 nM
EC50 [4]: 20.6 nM
